Assay results taken from US20200187499A1, “SUBSTITUTED BENZYL-4-AMINOPICOLINIC ESTERS AND PYRIMIDINO-4-CARBOXYLIC ESTERS, METHODS FOR THE PRODUCTION THEREOF, AND USE THEREOF AS HERBICIDES AND PLANT GROWTH REGULATORS” (Bayer CropScience Aktiengesellschaft, priority 2017, published 2020).

Columns and labels:
Type in all cases: in vivo
POLCO [1] = experiment: Post-emergence herbicidal action; conditions: Table 5, post-emergence (PO), 320 g/ha, assessed after about 3 weeks
Procedure: (§1) Seeds of monocotyledonous and dicotyledonous weed and crop plants are laid out in sandy loam soil in wood-fiber pots, covered with soil and cultivated in a greenhouse under good growth conditions. 2 to 3 weeks after sowing, the test plants are treated at the one-leaf stage. The compounds of the invention, formulated in the form of wettable powders (WP) or as emulsion concentrates (EC), are then sprayed onto the green parts of the plants in the form of an aqueous suspension or emulsion at a water application rate equating to 600 to 800 l/ha, with addition of 0.2% wetting agent. After the test plants have been left to stand in the greenhouse under optimal growth conditions for about 3 weeks, the action of the preparations is assessed visually in comparison to untreated controls (herbicidal action in percent (%): 100% activity=the plants have died, 0% activity=like control plants). […] At the same time, inventive compounds leave Gramineae crops such as barley, wheat, rye, millet/sorghum, corn or rice virtually undamaged when applied post-emergence, even at high active ingredient dosages. In addition, some substances are also harmless to dicotyledonous crops such as soya, cotton, oilseed rape, sugar beet or potatoes. Some of the compounds according to the invention have high selectivity and are therefore suitable for controlling unwanted vegetation in agricultural crops by the post-emergence method. The tables below illustrate, in an exemplary manner, the post-emergence herbicidal action of the compounds according to the invention, the herbicidal activity being stated in percent.

VIOTR [2] = experiment: Post-emergence herbicidal action; conditions: Table 5, post-emergence (PO), 320 g/ha, assessed after about 3 weeks
Procedure: as §1

AMARE [3] = experiment: Post-emergence herbicidal action; conditions: 320 g/ha, assessed after about 3 weeks
Procedure: as §1

ECHCG [4] = experiment: Post-emergence herbicidal action; conditions: Table 5, post-emergence (PO), 320 g/ha, assessed after about 3 weeks
Procedure: as §1

SETVI [5] = experiment: Post-emergence herbicidal action; conditions: 320 g/ha, assessed after about 3 weeks
Procedure: as §1

ABUTH [6] = experiment: Post-emergence herbicidal action; conditions: 320 g/ha, assessed after about 3 weeks
Procedure: as §1

STEME = experiment: Post-emergence herbicidal action; conditions: 320 g/ha, assessed after about 3 weeks
Procedure: as §1

PHBPU = experiment: Post-emergence herbicidal action; conditions: Table 5, post-emergence (PO), 320 g/ha, assessed after about 3 weeks
Procedure: as §1

ALOMY = experiment: Pre-emergence herbicidal action; conditions: 320 g/ha, scored after 3 weeks
From the text: (§2) Seeds of monocotyledonous and dicotyledonous weed plants and crop plants are laid out in sandy loam soil in wood-fiber pots and covered with soil. The compounds of the invention, formulated in the form of wettable powders (WP) or as emulsion concentrates (EC), are then applied to the surface of the covering soil in the form of an aqueous suspension or emulsion at a water application rate equating to 600 to 800 I/ha, with addition of 0.2% wetting agent. After the treatment, the pots are placed in a greenhouse and kept under good growth conditions for the trial plants. The damage to the test plants is scored visually after a test period of 3 weeks by comparison with untreated controls (herbicidal activity in percent (%): 100% activity=the plants have died, 0% activity=like control plants).
(§3) At the same time, inventive compounds leave Gramineae crops such as barley, wheat, rye, millet/sorghum, corn or rice virtually undamaged when applied pre-emergence, even at high active ingredient dosages. In addition, some substances are also harmless to dicotyledonous crops such as soya, cotton, oilseed rape, sugar beet or potatoes. […] The tables below illustrate, in an exemplary manner, the pre-emergence herbicidal action of the compounds according to the invention, the herbicidal activity being stated in percent.

AMARE [7] = experiment: Pre-emergence herbicidal action; conditions: 320 g/ha, scored after 3 weeks
From the text: as §2, §3

ECHCG [8] = experiment: Pre-emergence herbicidal action; conditions: 320 g/ha, scored after 3 weeks
From the text: as §2, §3

SETVI [9] = experiment: Pre-emergence herbicidal action; conditions: 320 g/ha, scored after 3 weeks
From the text: as §2, §3

ABUTH [10] = experiment: Pre-emergence herbicidal action; conditions: 320 g/ha, scored after 3 weeks
From the text: as §2, §3

POLCO [11] = experiment: Pre-emergence herbicidal action; conditions: Table 2, pre-emergence (PE), 320 g/ha, scored after 3 weeks
From the text: as §2, §3

VIOTR [12] = experiment: Pre-emergence herbicidal action; conditions: Table 2, pre-emergence (PE), 320 g/ha, scored after 3 weeks
From the text: as §2, §3

SMILES | Herbicidal action against POLCO (POLCO [1]) [%] | Herbicidal action against VIOTR (VIOTR [2]) [%] | Herbicidal action against AMARE (AMARE [3]; Table 5, post-emergence (PO)) [%] | Herbicidal action against ECHCG (ECHCG [4]) [%] | Herbicidal action against SETVI (SETVI [5]; Table 5, post-emergence (PO)) [%] | Herbicidal action against ABUTH (ABUTH [6]; Table 5, post-emergence (PO)) [%] | Herbicidal action against STEME (STEME; Table 5, post-emergence (PO)) [%] | Herbicidal action against PHBPU (PHBPU) [%] | Herbicidal action against AMARE (AMARE [7]; Table 4, pre-emergence (PE)) [%] | Herbicidal action against ECHCG (ECHCG [8]; Table 4, pre-emergence (PE)) [%] | other results
Nc1cc(-c2ccc3sccc3c2)nc(C(=O)OCc2ccc(Cl)cc2)c1Cl [Example I-19] | 0 | 80 | 100 | 100 | 80 | 90 | 100 | 100 | – | – | Herbicidal action against ALOMY (ALOMY; Table 3, pre-emergence (PE)): 60%; Herbicidal action against AMARE (AMARE [7]; Table 3, pre-emergence (PE)): 100%; Herbicidal action against ECHCG (ECHCG [8]; Table 3, pre-emergence (PE)): 50%; Herbicidal action against SETVI (SETVI [9]; Table 3, pre-emergence (PE)): 50%; Herbicidal action against ABUTH (ABUTH [10]; Table 3, pre-emergence (PE)): 70%
Nc1cc(-c2ccc3ccsc3c2)nc(C(=O)OCc2ccc(F)cc2F)c1Cl [Example I-12] | – | – | – | – | – | – | – | – | – | – | Herbicidal action against AMARE (AMARE [3]; Table 6, post-emergence (PO)): 100%; Herbicidal action against SETVI (SETVI [5]; Table 6, post-emergence (PO)): 100%; Herbicidal action against ABUTH (ABUTH [6]; Table 6, post-emergence (PO)): 90%; Herbicidal action against STEME (STEME; Table 6, post-emergence (PO)): 100%; Herbicidal action against ALOMY (ALOMY; Table 2, pre-emergence (PE)): 70%; Herbicidal action against POLCO (POLCO [11]): 100%; Herbicidal action against VIOTR (VIOTR [12]): 20%; Herbicidal action against AMARE (AMARE [7]; Table 2, pre-emergence (PE)): 100%; Herbicidal action against ECHCG (ECHCG [8]; Table 2, pre-emergence (PE)): 100%; Herbicidal action against SETVI (SETVI [9]; Table 2, pre-emergence (PE)): 90%; Herbicidal action against ABUTH (ABUTH [10]; Table 2, pre-emergence (PE)): 20%
Nc1c(F)c(-c2ccc3ccsc3c2)nc(C(=O)OCc2c(F)cc(F)cc2F)c1Cl [Example I-55] | 90 | 10 | 100 | 90 | 90 | 60 | 90 | 0 | 100 | 40 | –
Nc1cc(-c2ccc3occc3c2)nc(C(=O)OCc2cc(F)c(F)cc2F)c1Cl [Example I-06] | – | – | – | – | – | – | – | – | – | – | Herbicidal action against AMARE (AMARE [3]; Table 6, post-emergence (PO)): 100%; Herbicidal action against SETVI (SETVI [5]; Table 6, post-emergence (PO)): 90%; Herbicidal action against ABUTH (ABUTH [6]; Table 6, post-emergence (PO)): 100%; Herbicidal action against STEME (STEME; Table 6, post-emergence (PO)): 100%; Herbicidal action against ALOMY (ALOMY; Table 2, pre-emergence (PE)): 80%; Herbicidal action against POLCO (POLCO [11]): 100%; Herbicidal action against VIOTR (VIOTR [12]): 60%; Herbicidal action against AMARE (AMARE [7]; Table 2, pre-emergence (PE)): 100%; Herbicidal action against ECHCG (ECHCG [8]; Table 2, pre-emergence (PE)): 100%; Herbicidal action against SETVI (SETVI [9]; Table 2, pre-emergence (PE)): 90%; Herbicidal action against ABUTH (ABUTH [10]; Table 2, pre-emergence (PE)): 20%
Nc1cc(-c2ccc3ccsc3c2)nc(C(=O)OCc2ccc(Cl)cc2)c1Cl [Example I-14] | 100 | 70 | 100 | 90 | 90 | 100 | 100 | 80 | – | – | Herbicidal action against ALOMY (ALOMY; Table 3, pre-emergence (PE)): 30%; Herbicidal action against AMARE (AMARE [7]; Table 3, pre-emergence (PE)): 100%; Herbicidal action against ECHCG (ECHCG [8]; Table 3, pre-emergence (PE)): 100%; Herbicidal action against SETVI (SETVI [9]; Table 3, pre-emergence (PE)): 80%; Herbicidal action against ABUTH (ABUTH [10]; Table 3, pre-emergence (PE)): 50%
Nc1cc(-c2ccc3ncsc3c2)nc(C(=O)OCc2cccc(F)c2)c1Cl [Example I-41] | 0 | 90 | 90 | 100 | 100 | 100 | 100 | 70 | 50 | 90 | –
Nc1cc(-c2ccc3sccc3c2)nc(C(=O)OCc2cccc(Cl)c2)c1Cl [Example I-40] | 40 | 60 | 100 | 90 | 90 | 90 | 80 | 80 | 80 | 10 | –
